Laboratory results taken from PubChem BioAssay AID1963856 (Molecular Pharmacology Branch, DTP, NCI, 2024).

System: LG0567-F671-PDC KRAS tumor spheroid viability
Test: Anticancer human tumor LG0567-F671-PDC patient-derived lung adenocarcinoma cell line growth inhibition [KRAS2]
Conditions: spheroids with HUVEC and MSC; for IC50: curve of first compound; for viability, T/C: stronger effect = lower value
In short: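 KRAS-mutant tumor cells were grown as spheroids with HUVEC endothelial cells and human MSCs as stroma. Targeted agents were tested alone and with KRAS pathway inhibitors. Doses started at or near clinical Cmax, or 10 microM, descending half-log.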

[1] = second compound 0.1 µM, first compound 0.00316 µM
[2] = second compound 0.1 µM, first compound 0.01 µM
[3] = second compound 0.1 µM, first compound 0.0316 µM
[4] = second compound 0.1 µM, first compound 0.1 µM
[5] = second compound 0.1 µM, first compound 0.316 µM
[6] = second compound 0.1 µM, first compound 1 µM
[7] = second compound 0.316 µM, first compound 0.00316 µM
[8] = second compound 0.316 µM, first compound 0.01 µM
[9] = second compound 0.316 µM, first compound 0.0316 µM
[10] = second compound 0.316 µM, first compound 0.1 µM
[11] = second compound 0.316 µM, first compound 0.316 µM
[12] = second compound 0.316 µM, first compound 1 µM
[13] = second compound 1 µM, first compound 0.00316 µM
[14] = second compound 1 µM, first compound 0.01 µM
[15] = second compound 1 µM, first compound 0.0316 µM
[16] = second compound 1 µM, first compound 0.1 µM
[17] = second compound 1 µM, first compound 0.316 µM
[18] = second compound 1 µM, first compound 1 µM
[19] = second compound 3.16 µM, first compound 0.00316 µM
[20] = second compound 3.16 µM, first compound 0.01 µM
[21] = second compound 3.16 µM, first compound 0.0316 µM
[22] = second compound 3.16 µM, first compound 0.1 µM
[23] = second compound 3.16 µM, first compound 0.316 µM
[24] = second compound 3.16 µM, first compound 1 µM
[25] = second compound 10 µM, first compound 0.00316 µM
[26] = second compound 10 µM, first compound 0.01 µM
[27] = second compound 10 µM, first compound 0.0316 µM
[28] = second compound 10 µM, first compound 0.1 µM
[29] = second compound 10 µM, first compound 0.316 µM
[30] = second compound 10 µM, first compound 1 µM
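Note: drug exposure lasted seven days after spheroids formed for three days.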
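Throughout, for viability, T/C: 100% = DMSO vehicle control viability.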

`CCN1CCN(Cc2ccc(Nc3ncc(F)c(-c4cc(F)c5nc(C)n(C(C)C)c5c4)n3)nc2)CC1` + COc1cc2nc(C)nc(NC(C)c3cc(N)cc(C(F)(F)F)c3)c2cc1OC1CCOC1 showed an IC50 (second compound 0.1 µM) of 913 nM, an IC50 (second compound 0.316 µM) of 47.3 nM and an IC50 (second compound 1 µM) of 7.74 nM. It also gave an IC50 (second compound 3.16 µM) of under 3.16 nM, an IC50 (second compound 10 µM) of 5.32 nM and a viability, T/C [1] of 70.5%. The viability, T/C [2] was 64.7%, the viability, T/C [3] was 54.3% and the viability, T/C [4] was 56.7%. The viability, T/C [5] was 54.8%, the viability, T/C [6] was 47.3% and the viability, T/C [7] was 69%. The viability, T/C [8] was 64.2%, the viability, T/C [9] was 51.5% and the viability, T/C [10] was 47.5%. For the same molecule, the viability, T/C [11] was 44.2%, the viability, T/C [12] was 45.3% and the viability, T/C [13] was 57.3%. For the same molecule, the viability, T/C [14] was 47.3%, the viability, T/C [15] was 45.7% and the viability, T/C [16] was 38.7%. It also gave a viability, T/C [17] of 32.2%, a viability, T/C [18] of 42.4% and a viability, T/C [19] of 44.4%. The viability, T/C [20] was 39.5%, the viability, T/C [21] was 34.7% and the viability, T/C [22] was 33.6%. It also gave a viability, T/C [23] of 29.4%, a viability, T/C [24] of 30.8% and a viability, T/C [25] of 60.8%. It also gave a viability, T/C [26] of 34.8%, a viability, T/C [27] of 26.5% and a viability, T/C [28] of 9.45%. For the same molecule, the viability, T/C [29] was 0.94% and the viability, T/C [30] was 0.43%.
`CC(=O)Nc1cccc(-n2c(=O)n(C3CC3)c(=O)c3c(Nc4ccc(I)cc4F)n(C)c(=O)c(C)c32)c1` + C=CC(=O)N1CCN(c2nc(=O)n(-c3c(C)ccnc3C(C)C)c3nc(-c4c(O)cccc4F)c(F)cc23)C(C)C1 showed an IC50 (second compound 0.1 µM) of under 0.1 nM, an IC50 (second compound 0.316 µM) of under 0.1 nM and an IC50 (second compound 1 µM) of under 0.1 nM. For the same molecule, the IC50 (second compound 3.16 µM) was under 0.1 nM, the IC50 (second compound 10 µM) was under 0.1 nM and the viability, T/C (second compound 0.1 µM, first compound 0.0001 µM) was 26.4%. It also gave a viability, T/C (second compound 0.1 µM, first compound 0.000316 µM) of 25.5%, a viability, T/C (second compound 0.1 µM, first compound 0.001 µM) of 26.4% and a viability, T/C [1] of 27.6%. For the same molecule, the viability, T/C [2] was 12.1%, the viability, T/C [3] was 4.13% and the viability, T/C (second compound 0.316 µM, first compound 0.0001 µM) was 24.9%. For the same molecule, the viability, T/C (second compound 0.316 µM, first compound 0.000316 µM) was 24.7%, the viability, T/C (second compound 0.316 µM, first compound 0.001 µM) was 28.9% and the viability, T/C [7] was 14.2%. For the same molecule, the viability, T/C [8] was 8.8%, the viability, T/C [9] was 2.68% and the viability, T/C (second compound 1 µM, first compound 0.0001 µM) was 30.5%. For the same molecule, the viability, T/C (second compound 1 µM, first compound 0.000316 µM) was 28.2%, the viability, T/C (second compound 1 µM, first compound 0.001 µM) was 22.8% and the viability, T/C [13] was 17.7%. The viability, T/C [14] was 8.78%, the viability, T/C [15] was 3.83% and the viability, T/C (second compound 3.16 µM, first compound 0.0001 µM) was 26.7%. For the same molecule, the viability, T/C (second compound 3.16 µM, first compound 0.000316 µM) was 27.7%, the viability, T/C (second compound 3.16 µM, first compound 0.001 µM) was 20.1% and the viability, T/C [19] was 10.5%. The viability, T/C [20] was 10.7%, the viability, T/C [21] was 3.27% and the viability, T/C (second compound 10 µM, first compound 0.0001 µM) was 20.3%. It also gave a viability, T/C (second compound 10 µM, first compound 0.000316 µM) of 18.9%, a viability, T/C (second compound 10 µM, first compound 0.001 µM) of 16.9% and a viability, T/C [25] of 11.7%. The viability, T/C [26] was 6.78% and the viability, T/C [27] was 4.36%.
With `CCNC(=O)CC1N=C(c2ccc(Cl)cc2)c2cc(OC)ccc2-n2c(C)nnc21` (stereo not given) + C=CC(=O)N1CCN(c2nc(=O)n(-c3c(C)ccnc3C(C)C)c3nc(-c4c(O)cccc4F)c(F)cc23)C(C)C1 the IC50 (second compound 0.1 µM) was under 31.6 nM, the IC50 (second compound 0.316 µM) was under 31.6 nM and the IC50 (second compound 1 µM) was under 31.6 nM. For the same molecule, the IC50 (second compound 3.16 µM) was under 31.6 nM, the IC50 (second compound 10 µM) was under 31.6 nM and the viability, T/C [3] was 35%. It also gave a viability, T/C [4] of 33%, a viability, T/C [5] of 24.3% and a viability, T/C [6] of 18.5%. The viability, T/C (second compound 0.1 µM, first compound 3.16 µM) was 15.2%, the viability, T/C (second compound 0.1 µM, first compound 10 µM) was 12.9% and the viability, T/C [9] was 28.9%. The viability, T/C [10] was 34.7%, the viability, T/C [11] was 25.1% and the viability, T/C [12] was 18.7%. The viability, T/C (second compound 0.316 µM, first compound 3.16 µM) was 15.3%, the viability, T/C (second compound 0.316 µM, first compound 10 µM) was 13.2% and the viability, T/C [15] was 32.7%. For the same molecule, the viability, T/C [16] was 31.1%, the viability, T/C [17] was 22% and the viability, T/C [18] was 16%. For the same molecule, the viability, T/C (second compound 1 µM, first compound 3.16 µM) was 15.8%, the viability, T/C (second compound 1 µM, first compound 10 µM) was 12.4% and the viability, T/C [21] was 25.9%. The viability, T/C [22] was 30.1%, the viability, T/C [23] was 20.9% and the viability, T/C [24] was 16.3%. For the same molecule, the viability, T/C (second compound 3.16 µM, first compound 3.16 µM) was 12.8%, the viability, T/C (second compound 3.16 µM, first compound 10 µM) was 10.2% and the viability, T/C [27] was 24.3%. The viability, T/C [28] was 26.2%, the viability, T/C [29] was 17% and the viability, T/C [30] was 10.3%. For the same molecule, the viability, T/C (second compound 10 µM, first compound 3.16 µM) was 9.13% and the viability, T/C (second compound 10 µM, first compound 10 µM) was 9.1%.
